Entries after “also recorded” stand apart in the source; their conditions may differ.
Legend:
Assay type in all cases: cell-based, Staphylococcus aureus
[1] = test system: MRSA COL pbp2 antisense (AS) strain; assay: Xylose-inducible antisense-RNA strain susceptibility (PBP2 repression); conditions: targeted repression of PBP2
Text: (§1) We confirmed the targets of the constituents of ME/PI/TZ by reducing the expression of PBP1, PBP2, PBP2a or PBP3 using a xylose-inducible antisense-RNA strategy in the MRSA COL strain background^49. When expression levels of PBP2a were attenuated, the strain behaved as a methicillin-susceptible S. aureus and was sensitized to all tested β-lactams (FIG. 6A-C).

[2] = test system: MRSA N315; assay: In vitro MICs and FICI for MRSA N315 after passage in vivo
Text: We tested MRSA N315 cultures from blood drawn from mice treated with meropenem, piperacillin, or vehicle for their in vitro MICs against ME/PI/TZ and its constituent single drugs to determine whether adaptation occurred during passage in vivo. All four tested isolates of MRSA N315 had identical MICs for the triple ME/PI/TZ and all constituent drugs, and thus identical synergy (Table 6B).
(§2) Microbiological Studies: MRSA N315 was a gift from Dr. Steven Gill, University of Rochester, Rochester, NY, USA. S. aureus ATCC 29213 was acquired from the American Type Culture Collection. De-identified clinical MRSA isolates were selected at random from the clinical isolate strain bank at Barnes-Jewish Hospital, St. Louis, MO, USA. Minimal inhibitory concentration (MIC) assays for inhibition of growth were performed following the recommendations of the Clinical and Laboratory Standards Institute (CLSI)^43. Briefly, 23 antibacterial compounds (Supplemental Table 1) were selected based on coverage of all major drug classes, including three compounds not classified as antibiotics for human use, but with known antibacterial properties. Compounds were dissolved in dimethyl sulfoxide (DMSO) to a stock concentration of 50 mg/ml. Exceptions: Sulfometuron at 20 mg/ml in DMSO; Tobramycin, D-cycloserine, and colistin at 50 mg/ml in H2O and filtered at 2 μm. The 23 compounds were formulated into all 253 possible unique pairwise combinations at fixed ratios and at 100× concentrations in solvent. To increase the range of concentrations assayed for possible synergistic or antagonistic drug interactions (>2,000-fold), the drug stocks were arrayed into threefold dilution series down eight rows in 96-well Costar master drug plates, using a BioMek FX robotic liquid handler (Beckman Coulter, Inc.). Drugs were then mixed 1:100 into 96-well plates containing 200 μl/well of cation-adjusted Mueller-Hinton broth (CAMHB). All drug susceptibility assay wells were inoculated with ˜1 μl of mid-log phase bacterial culture at 0.5 McFarland standard (˜2×10^8 CFU/ml) and grown at 37° C. for 24 h. Endpoint growth at 37° C. after 24 h was determined by optical density at 600 nm ≥0.1 using a Synergy H1 reader (BioTek, Inc.).
Bacterial isolation from blood. Blood samples were checked for bacterial growth by plating and liquid culture. Whole blood (100 μl, three samples per group) was spread onto Brain-Heart Infusion (BHI) agar plates and incubated at 36° C. overnight. Colonies were counted and three colonies were selected, grown overnight in liquid BHI culture at 36° C., then mixed 1:1 with 30% LB-glycerol and stored at −80° C. The remaining three blood samples of each group (50 μl) was added to 5 ml BHI broth and incubated overnight at 36° C. When growth was noted, cultures were mixed 1:1 with 30% LB-glycerol and stored at −80° C.

[3] = test system: MRSA N315; assay: MIC assay and FICI synergy determination (checkerboard); conditions: Staphylococcus aureus, MRSA; single compounds; read-out: MIC in MRSA N315
Procedure: as §2
Synergy of antibiotic combinations was determined using the fractional inhibitory concentration index (FICI) method ^57,58. By this method, the MIC of the antibiotic compound in combination is divided by the MIC of the compound alone, yielding the fractional contribution of each drug component in the combination. Quotients for all in a combination are summed and drug interactions scored using the formula: FICI=(MIC Acomb A B C)/MICagent A+(MIC Bcomb A B C)/MICagent B+(MIC Ccomb A B C)/MICagentC Select pairwise combinations against MRSA were then combined with each of the 21 remaining single drugs to make triple combinations, formulated and tested in identical fashion to the double combinations. Synergy of combinations was confirmed via triplicate measurements of drug conditions at the MIC. Based on its high synergy against MRSA N315 in the sparse screening, ME/PI/TZ and its constituents were selected for further characterization. Final susceptibility testing of ME/PI/TZ and its components was performed using twofold dilution from 128 to 2 μg/ml for each component

[4] = test system: MRSA N315; assay: Adaptation and cross-resistance assays (11-day passage)
Procedure: Adaptation and Cross-resistance Assays: 414 MRSA N315 was grown in 150 μl/well of CAMHB with constant shaking at 37° C. and passaged over 11 days in identical 96-well plates containing replicate threefold dilutions of ME/PI/TZ, ME/PI, ME/TZ, PI/TZ, ME, PI, and TZ. Top concentrations of drug combinations were 33.3 μg/ml for each component, while top concentrations for single drugs was 100 μg/ml. To test for cell viability, at the end of the assay on day 11, all wells from the plate were pinned with a sterile 96-pin replicator and transferred to CAMHB only. After passage, plates were filled 1:1 with 30% CAMHB/glycerol and frozen at −80° C. for later analysis.
Growth rate of isolates over passages in each condition was determined by linear best-fit of logarithm-converted exponential growth phase. […] Adapted isolates were retrospectively chosen from each combination or single compound in wells showing an increase in MIC or growth rate, frozen isolates were streaked out on agar plates to obtain single colonies, re-grown in broth conditions identical to those in which they grew originally, and then re-inoculated in sterile 96-well plates identical to the original 11-day 431 plates.

[5] = test system: MRSA COL pbp2a/mecA antisense (AS) strain; assay: Xylose-inducible antisense-RNA strain susceptibility (PBP2a repression); conditions: targeted repression of PBP2a
Text: as §1

[6] = test system: MRSA COL pbpA antisense (AS) strain; assay: Xylose-inducible antisense-RNA strain susceptibility (PBP1 repression); conditions: targeted repression of PBP1
Text: as §1

[7] = colonies from mice given Vehicle

## C[C@@H](O)[C@H]1C(=O)N2C(C(=O)O)=C(S[C@@H]3CN[C@H](C(=O)N(C)C)C3)[C@H](C)[C@H]12 [Meropenem]
[1]
  susceptibility under xylose induction: increased susceptibility; also recorded: increased effectiveness
[2]; Staphylococcus aureus, MRSA
  MIC: 33.3 µg/mL
[2]; Wild-type N315
  MIC: 33.3 µg/mL
[2]; colonies from mice given PI
  MIC: 33.3 µg/mL
[2]; [7]
  MIC: 33.3 µg/mL
[3]
  MIC: 16 µg/mL
[4]; MRSA N315 after prior exposure to PI/TZ
  collateral effect on susceptibility: sensitized
[4]; MRSA N315 after prior exposure/adaptation to piperacillin
  collateral effect on susceptibility: sensitizes; also recorded: strong reciprocal collateral sensitivity
[5]
  susceptibility under xylose induction: increased susceptibility
[6]
  susceptibility under xylose induction: increased susceptibility; also recorded: larger zones of inhibition

## CCN1CCN(C(=O)N[C@@H](C(=O)N[C@@H]2C(=O)N3[C@@H]2SC(C)(C)[C@@H]3C(=O)O)c2ccccc2)C(=O)C1=O [Piperacillin]
[1]
  susceptibility under xylose induction: increased susceptibility; also recorded: increased effectiveness
[2]; Staphylococcus aureus, MRSA
  MIC: 33.3 µg/mL
[2]; Wild-type N315
  MIC: 33.3 µg/mL
[2]; colonies from mice given PI
  MIC: 33.3 µg/mL
[2]; [7]
  MIC: 33.3 µg/mL
[3]
  MIC: 64 µg/mL
[4]; MRSA N315 after prior exposure to ME/TZ
  collateral effect on susceptibility: strong reciprocal collateral sensitivity
[4]; MRSA N315 after prior exposure to tazobactam
  collateral effect on susceptibility: Collateral sensitivity
[4]; MRSA N315 after prior exposure/adaptation to meropenem
  collateral effect on susceptibility: strong reciprocal collateral sensitivity
[5]
  susceptibility under xylose induction: Increased susceptibility
[6]
  susceptibility under xylose induction: increased susceptibility

From patent publication US20230293488A1, “COMPOSITIONS AND METHODS OF USE OF ANTIBACTERIAL DRUG COMBINATIONS” (priority 2015, published 2023)
